Measured values reported in patent publication US20210283163A1, “COMPOSITIONS AND METHODS FOR THE TREATMENT OF ACUTE AND CHRONIC PRURITIS” (Duke University, priority 2018, published 2021).

Biological target: T1, TRPV1 (Mus musculus, UniProt Q704Y3)
T1 construct: expressed in transfected cells; host or cells: CHO cells (ATCC CRL-9096), plasmid pcDNA3.1-mTrpv1, a gift from Korea University
Experiment: Whole-cell patch clamp in CHO cells transfected with mouse Trpv1 cDNA
Type: cell-based
Conditions: miR-711 10 μM; capsaicin 50 nM
Procedure: Constructs. The cDNAs of mouse pcDNA3.1-Trpa1, pcDNA3.1-Trpv1, pcDNA3.1-Trpv2, pcDNA3.1-Trpv3, and pcDNA3.1-Trpv4 were kindly provided Dr. Sun Work Hwang from Korea University. Mouse Trpa1 cDNA was subcloned into pCGN-HA backbone (Addgene) using In-Fusion HD Cloning Kit (Clontech Laboratories, CA). Q5 Site-Directed Mutagenesis Kit was used to generate mTrpa1 mutant (M1-M13) based on pCGN-mTrpa1.
Cell Culture and Transfection. CD4^+ Myla cell line was cultured in RPMI 1640 media (GIBCO), supplemented with 2 mM Glutamine (GIBCO), 100 U/mL IL-2 (Sigma), 100 U/mL IL-4 (Sigma), and 10% human AB serum (Sigma). HuT 102 cell line was cultured in RPMI 1640 supplemented with pyruvate, HEPES, and 10% (v/v) fetal bovine serum (HyClone). HEK293-hTRPA1 stable cell line was cultured in MEM (GIBCO) containing 2 mM Glutamine, 4 μg/mL Blasticidin, 10% FBS (v/v). B16 and CHO cells were cultured in high glucose (4.5 g/L) Dulbecco's Modified Eagle's Medium (GIBCO) containing 10% (v/v) fetal bovine serum (GIBCO). Culture media were supplemented with 50 units/mL of penicillin and 50 μg/mL streptomycin, and cultures were maintained with 5% CO2 in 37° C. incubator. Transfection (2 μg cDNA) was performed with Lipofectamine™ 2000 Reagent (Invitrogen) at 80% confluency and the transfected cells were cultured in the same media for 48 hr before electrophysiological and biochemical studies. […]

T1 sequence (Q704Y3 whole entry): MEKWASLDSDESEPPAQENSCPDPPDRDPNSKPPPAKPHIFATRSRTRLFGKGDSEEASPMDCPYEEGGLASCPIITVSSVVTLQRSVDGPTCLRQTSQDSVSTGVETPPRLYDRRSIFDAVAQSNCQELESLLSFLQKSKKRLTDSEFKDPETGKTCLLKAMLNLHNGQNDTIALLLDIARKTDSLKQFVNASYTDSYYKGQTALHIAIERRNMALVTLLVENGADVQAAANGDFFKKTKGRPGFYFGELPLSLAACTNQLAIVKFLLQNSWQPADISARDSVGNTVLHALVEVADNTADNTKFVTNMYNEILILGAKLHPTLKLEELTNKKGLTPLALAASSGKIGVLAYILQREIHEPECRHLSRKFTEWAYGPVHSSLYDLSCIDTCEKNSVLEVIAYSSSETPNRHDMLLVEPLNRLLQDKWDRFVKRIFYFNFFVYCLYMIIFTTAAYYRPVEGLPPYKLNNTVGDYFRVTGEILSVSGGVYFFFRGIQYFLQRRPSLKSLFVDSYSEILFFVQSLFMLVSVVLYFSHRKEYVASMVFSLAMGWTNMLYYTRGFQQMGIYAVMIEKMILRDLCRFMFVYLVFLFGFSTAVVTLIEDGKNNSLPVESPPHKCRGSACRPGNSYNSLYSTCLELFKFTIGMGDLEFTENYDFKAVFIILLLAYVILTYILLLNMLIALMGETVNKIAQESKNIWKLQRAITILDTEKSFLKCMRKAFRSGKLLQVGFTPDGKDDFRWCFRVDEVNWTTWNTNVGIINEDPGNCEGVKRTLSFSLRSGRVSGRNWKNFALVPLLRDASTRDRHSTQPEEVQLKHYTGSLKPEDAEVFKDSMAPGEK

“miR-711: mmu-miR-711: gggacccggggagagauguaag (SEQ ID NO: 5) (GGGACCCGGGGAGAGAUGUAAG; chemistry not given here)” was tested, and the inward currents was “failed to trigger inward currents”.
